In general, mortality refers to the share of the test organisms that died.

Among the data in patent US12024510B2, “Pyrazolopyridine-diamides, their use as insecticide and processes for preparing the same” (PI INDUSTRIES LTD., priority 2017, dated 2024) are mortality values, retold here.

Each structure is given as a SMILES string.

Common to all, as to assay type: in vivo
In experiment [1] the test system is Plutella xylostella. As to the kind of experiment: whole plant or invertebrate. Conditions: foliar, cabbage leaf dip, second instar larvae, dead and moribund combined, 72 h after release. As for the experimental part:
(§1) Test Solutions were Prepared According to the Procedure Described Herein Below (500 PPM):
(§2) • 1. Eppendorf Vortex mixer (ThermoMixer C) and 1.5 mL Eppendorf tubes • 2. Zirconia (Zirconium-Yttrium) beads having diameter of 0.8 to 1.0 mm • 3. Microscope • 4. Beaker 100 mL • 5. Micro-pipette Reagents: • 1. Surfactant Solution • 2. De-mineralized (DM) Water • 1. Weigh 10 mg of the compound of the present invention to be tested in an Eppendorf Tube. • 2. Add 200 mg of the Surfactant Solution into the tube. • 3. Add 600 mg of Zirconia beads into the above mixture. • 4. Fix the tube in Eppendorf Vortex mixer and start vortexing at 2000 rpm. • 5. Mix on Vortex mixer for 30 minutes. After 30 minutes, observe the sample over a microscope at 400× resolution. • 6. If the Maximum particle size is more than 5 μm or average particle size is more than 2 μm or the particle size distribution is uneven, continue vortexing for another 30 minutes and again check the particle size using the microscope. Continue till the average particle size is below 2 microns. • 7. When the required particle size is achieved, add 1.0 mL DM water into the tube, close the cap, shake the tube thoroughly and transfer the contents, along with the beads, into a beaker. • 8. To rinse the tube, add another 1.0 mL of DM water into the tube, close the cap, shake well and transfer this into the same beaker. • 9. Repeat Step no. 8 one more time so that the tube is rinsed well and the compound of the present invention to be tested is transferred to the beaker. • 10. Add 16.8 mL of DM water into the beaker and stir well. • 11. The homogeneous dispersion can then be decanted into a glass vial, immediately, to separate the Zirconia beads. • 12. Immediately use this sample for biological testing. • 13. Further dilutions can be prepared by taking appropriate quantity of the aliquot of Step 10, immediately after stirring, and diluting as per requirement. The sample solution must be well mixed just before biological testing.
Leaf dip method was used for screening, wherein the required quantity of the compounds were weighed and dissolved in the test solution into the tube and vortex at 2000 rpm with Zirconia beads for 90 min for proper mixing, then mixed with 0.01% Triton-X solution to get the desired test concentration. Cabbage leaves were dipped in the solution for 10 seconds, shade dried for 20 min and then transferred to bioassay trays. Single second instar larva was released into each cell and the tray was covered with lid. The bio-assay trays were kept under laboratory conditions at a temperature of 25° C. and relative humidity of 70%. Observations on dead, moribund and live larvae were recorded at 72 h after the release. Percent mortality was calculated by combining dead and moribund larvae. The following compound num.

The test system of experiment [2] is Helicoverpa armigera. Put plainly: Helicoverpa armigera diet incorporation method. Conditions: third instar larvae, dead and moribund combined, 96 h after release. Here is the method: as §1, §2
(§3) Diet incorporation method was used, in which and semi-synthetic diet was incorporated into the test solution when the temperature is approximately 50° C. in the bioassay containers and stirred thoroughly for properly mixing and then was allowed to cool for 30 min. The solidified diet was cut into equal pieces, and then each piece was transferred in one cell in Bio-assay trays. A single third instar starved larva was released into each of these cells of bioassay trays and the tray was covered with the lid. The bio-assay trays were kept under laboratory conditions at a temperature of 25° C. and Relative Humidity of 70%. Observations on dead, moribund and live larvae were recorded at 96 h after the release of larvae. Percent mortality was calculated by combining dead and moribund larvae. The following compound numbers

The test system of experiment [3] is Spodoptera litura. Put plainly: Spodoptera litura diet incorporation method. Conditions: third instar larvae, dead and moribund combined, 96 h after release. Here is the method: as §1, §2
as §3, with “which” for “which and”

For the compound `Cc1cc2ccnn2c(C(=O)NC2C[S+]([O-])C2)c1NC(=O)c1cc(Br)nn1-c1ncccc1Cl` (stereo not shown) [Compound 209, 6-(3-bromo-1-(3-chloropyridin-2-yl)-1H-pyrazole-5-carboxamido)-5-methyl-N-(1-oxidothietan-3-yl)pyrazolo[1,5-a]pyridine-7-carboxamide], the mortality at 300 ppm in experiment [1] and in experiment [2] was more than 70% in each case.

For the compound `Cc1cc2ccnn2c(C(=O)NC(C)C(F)(F)F)c1NC(=O)c1cc(C(F)(F)F)nn1-c1ncccc1Cl` (stereo not shown) [Compound 220, 6-(1-(3-chloropyridin-2-yl)-3-(trifluoromethyl)-1H-pyrazole-5-carboxamido)-5-methyl-N-(1,1,1-trifluoropropan-2-yl)pyrazolo[1,5-a]pyridine-7-carboxamide], in experiment [3], the mortality at 300 ppm was more than 70%.

`COc1cc(C(=O)Nc2c(C)cc3ccnn3c2C(=O)NC(C)C(F)(F)F)n(-c2ncccc2Cl)n1` (stereo not shown) [Compound 217, 6-(1-(3-chloropyridin-2-yl)-3-methoxy-1H-pyrazole-5-carboxamido)-5-methyl-N-(1,1,1-trifluoropropan-2-yl)pyrazolo[1,5-a]pyridine-7-carboxamide]: the mortality at 300 ppm in experiment [3] is more than 70%.

Consider `Cc1cc2ccnn2c(C(=O)NOC(C)C)c1NC(=O)c1cc(OCC(F)(F)F)nn1-c1ncccc1Cl` [Compound 116, 6-(1-(3-chloropyridin-2-yl)-3-(2,2,2-trifluoroethoxy)-1H-pyrazole-5-carboxamido)-N-isopropoxy-5-methylpyrazolo[1,5-a]pyridine-7-carboxamide], for which the mortality at 300 ppm in experiment [1] and in experiment [2] was more than 70% in each case.

For `CCONC(=O)c1c(NC(=O)c2cc(OCC(F)(F)F)nn2-c2ncccc2Cl)c(C)cc2ccnn12` [Compound 115, 6-(1-(3-chloropyridin-2-yl)-3-(2,2,2-trifluoroethoxy)-1H-pyrazole-5-carboxamido)-N-ethoxy-5-methylpyrazolo[1,5-a]pyridine-7-carboxamide], the mortality at 300 ppm in experiment [1] and in experiment [2] was more than 70% in each case.

As for `COc1cc(C(=O)Nc2c(Br)cc3ccnn3c2C(=O)NC(C)C)n(-c2ncccc2Cl)n1` [Compound 130, 5-bromo-6-(1-(3-chloropyridin-2-yl)-3-methoxy-1H-pyrazole-5-carboxamido)-N-isopropylpyrazolo[1,5-a]pyridine-7-carboxamide], the mortality at 300 ppm in experiment [1] and in experiment [2] was more than 70% each time.

In the case of `Cc1cc2ccnn2c(C(=O)NC2(C)COC2)c1NC(=O)c1cc(Br)nn1-c1ncccc1Cl` [Compound 173, 6-(3-bromo-1-(3-chloropyridin-2-yl)-1H-pyrazole-5-carboxamido)-5-methyl-N-(3-methyloxetan-3-yl)pyrazolo[1,5-a]pyridine-7-carboxamide], the mortality at 300 ppm in experiment [1] and in experiment [2] was more than 70% in each case.

For `Cc1cc2ccnn2c(C(=O)NC2CC2)c1NC(=O)c1cc(OC2CSC2)nn1-c1ncccc1Cl` [Compound 145, 6-(1-(3-chloropyridin-2-yl)-3-(thietan-3-yloxy)-1H-pyrazole-5-carboxamido)-N-cyclopropyl-5-methylpyrazolo[1,5-a]pyridine-7-carboxamide], the mortality at 300 ppm in experiment [3] was more than 70%.

With `Cc1cc2ccnn2c(C(=O)NCC#N)c1NC(=O)c1cc(C(F)(F)F)nn1-c1ncccc1Cl` [Compound 117, 6-(1-(3-chloropyridin-2-yl)-3-(trifluoromethyl)-1H-pyrazole-5-carboxamido)-N-(cyanomethyl)-5-methylpyrazolo[1,5-a]pyridine-7-carboxamide], the mortality at 300 ppm in experiment [1] and in experiment [2] was more than 70% in each case.

On to `CCNC(=O)c1c(NC(=O)c2cc(N3CC(F)(F)C3)nn2-c2ncccc2Cl)c(C)cc2ccnn12` [Compound 83, 6-(1-(3-chloropyridin-2-yl)-3-(3,3-difluoroazetidin-1-yl)-1H-pyrazole-5-carboxamido)-N-ethyl-5-methylpyrazolo[1,5-a]pyridine-7-carboxamide], for which, in experiment [3], the mortality at 300 ppm is more than 70%.

On to `CCNC(=O)c1c(NC(=O)c2cc(C(F)(F)F)nn2-c2ncccc2Cl)c(Br)cc2ccnn12` [Compound 127, 5-bromo-6-(1-(3-chloropyridin-2-yl)-3-(trifluoromethyl)-1H-pyrazole-5-carboxamido)-N-ethylpyrazolo[1,5-a]pyridine-7-carboxamide], for which the mortality at 300 ppm in experiment [1] and in experiment [2] was more than 70% each time.

Regarding `Cc1cc2ccnn2c(C(=O)NCCC(C)C)c1NC(=O)c1cc(Br)nn1-c1ncccc1Cl` [Compound 206, 6-(3-bromo-1-(3-chloropyridin-2-yl)-1H-pyrazole-5-carboxamido)-N-isopentyl-5-methylpyrazolo[1,5-a]pyridine-7-carboxamide], in experiment [3], the mortality at 300 ppm was more than 70%.

As for `COc1cc(C(=O)Nc2c(Cl)cc3ccnn3c2C(=O)NCC2CC2)n(-c2ncccc2Cl)n1` [Compound 131, 5-chloro-6-(1-(3-chloropyridin-2-yl)-3-methoxy-1H-pyrazole-5-carboxamido)-N-(cyclopropylmethyl)pyrazolo[1,5-a]pyridine-7-carboxamide], the mortality at 300 ppm in experiment [1] and in experiment [2] was more than 70% in each case.

As to `CCC(C)CNC(=O)c1c(NC(=O)c2cc(OC)nn2-c2ncccc2Cl)c(C)cc2ccnn12` (stereo not shown) [Compound 199, 6-(1-(3-chloropyridin-2-yl)-3-methoxy-1H-pyrazole-5-carboxamido)-5-methyl-N-(2-methylbutyl)pyrazolo[1,5-a]pyridine-7-carboxamide], the mortality at 300 ppm in experiment [1] and in experiment [2] was more than 70% each time.

In the case of `Cc1cc2ccnn2c(C(=O)NCC2CC2)c1NC(=O)c1cc(Cn2nnc(C(F)(F)F)n2)nn1-c1ncccc1Cl` [Compound 171, 6-(1-(3-chloropyridin-2-yl)-3-((5-(trifluoromethyl)-2H-tetrazol-2-yl)methyl)-1H-pyrazole-5-carboxamido)-N-(cyclopropylmethyl)-5-methylpyrazolo[1,5-a]pyridine-7-carboxamide], the mortality at 300 ppm in experiment [1] and in experiment [2] was more than 70% throughout.

For `COc1cc(C(=O)Nc2c(C)cc3ccnn3c2C(=O)NC2(C)CC2)n(-c2ncccc2Cl)n1` [Compound 219, 6-(1-(3-chloropyridin-2-yl)-3-methoxy-1H-pyrazole-5-carboxamido)-5-methyl-N-(1-methylcyclopropyl)pyrazolo[1,5-a]pyridine-7-carboxamide], the mortality at 300 ppm in experiment [3] is more than 70%.

`Cc1cc2ccnn2c(C(=O)NCC(F)(F)F)c1NC(=O)c1cc(OCC(F)(F)F)nn1-c1ncccc1Cl` [Compound 114, 6-(1-(3-chloropyridin-2-yl)-3-(2,2,2-trifluoroethoxy)-1H-pyrazole-5-carboxamido)-5-methyl-N-(2,2,2-trifluoroethyl)pyrazolo[1,5-a]pyridine-7-carboxamide]: the mortality at 300 ppm in experiment [1] and in experiment [2] was more than 70% each time.

On to `CONC(=O)c1c(NC(=O)c2cc(N3CC(F)(F)C3)nn2-c2ncccc2Cl)c(C)cc2ccnn12` [Compound 84, 6-(1-(3-chloropyridin-2-yl)-3-(3,3-difluoroazetidin-1-yl)-1H-pyrazole-5-carboxamido)-N-methoxy-5-methylpyrazolo[1,5-a]pyridine-7-carboxamide], for which the mortality at 300 ppm in experiment [1] and in experiment [2] was more than 70% throughout.

Take `C=CCNC(=O)c1c(NC(=O)c2cc(N3CC(F)(F)C3)nn2-c2ncccc2Cl)c(C)cc2ccnn12` [Compound 86, N-allyl-6-(1-(3-chloropyridin-2-yl)-3-(3,3-difluoroazetidin-1-yl)-1H-pyrazole-5-carboxamido)-5-methylpyrazolo[1,5-a]pyridine-7-carboxamide]: in experiment [3], the mortality at 300 ppm is more than 70%.
